“Also recorded” adds a separate entry of the source.
Key:
[1] = log P from octanol and PBS pH 7.4; type: physicochemical
BXPC-3 = assay: MTT cytotoxicity, pancreatic cancer cell line BXPC-3; type: cell-based
Description: (§1) To determine cytotoxicity of Re-Phen and Phenformin, different cell lines were exposed to different concentrations of the compounds and their viabilities were followed over time. Pancreatic cells were seeded in 96-well plates (5000 cells/well) overnight, and treated with Re-Phen (FIG. 13A) or phenformin (FIG. 13B) in concentrations ranging from 4.57×10−4 mM to 1.0 mM at 37° C. for 72 h. Cell viability was measured using the MTT assay. The absorption at 590 nm was measured with a microplate reader (SpectraMax, Molecular Device, San Diego, CA) to quantify cell numbers. The proportion of cells was normalized to that of untreated cells and expressed as mean±standard error of the mean (SEM) (n=6). The half-maximal inhibitory concentration (IC50) values were calculated by a sigmoidal dose-response (variable slope) curve-fitting using GraphPad Prism software.

Kras* = assay: MTT cytotoxicity, pancreatic cancer cell line Kras*; type: cell-based, murine; settings: 72 h
Description: as §1

MiaPaca-2 PDAC cells = assay: MTT cytotoxicity, pancreatic cancer cell line MiaPaca-2; type: cell-based; settings: for IC50: MTT, 72 h
Description: as §1, with “Pancreatic cells were seeded in 96-well plates (5000 cells/well) overnight, and treated with Re-Phen (FIG. 13A) or phenformin (FIG. 13B) in concentrations ranging from 4.57×10−4 mM to 1.0 mM at 37° C. for 72 h.” left out

OVCAR4 = assay: MTT cytotoxicity, ovarian cancer cell line OVCAR4; type: cell-based
Description: (§2) Finally, a comparison study of the cytotoxicity of Re-Phen and phenformin in a panel of ovarian cancer cell lines by MTT assay after a 72 hour incubation period was conducted. Ovarian cells were seeded at 5000 cells/well in 96-well plates overnight, and treated with Re-Phen or phenformin in different concentrations (from 4.57×10^−4 mM to 1.0 mM in 3-fold increase) at 37° C. for 72 hours. Cell viability was measured using the MTT assay. The absorption at 590 nm was measured at microplate reader (SpectraMax, Molecular Device, San Diego, CA) to quantify cell numbers. The proportion of cells was normalized to that of untreated cells and expressed as mean±standard error of the mean (SEM) (n=5-6). The resulting reduced viability with half-maximal inhibitory concentration (IC50) values of mM were calculated by a sigmoidal dose-response (variable slope) curve-fitting using GraphPad Prism software. The data are shown in FIG. 19A (Re-Phen) and FIG. 19B (phenformin). […] In fact, Re-Phen is shown to display >2,000-fold and >5,000-fold higher cytotoxicity against OVACAR-8 and SKOV3 (Table 2) human ovarian cancer cell lines, respectively.

A2789-cp20 = assay: MTT cytotoxicity, ovarian cancer cell line A2789-cp20; type: cell-based; settings: 72 hours
Description: as §2

HeyA8 = assay: MTT cytotoxicity, ovarian cancer cell line HeyA8; type: cell-based
Description: as §2

AMPK = AMPK and AMPK phosphoprotein western blotting; type: cell-based; settings: 24 hours
Description: R-actin was used as a loading control. Cells were treated with phenformin or Re-Phenformin overnight at the indicated concentrations for 24 hours.
AMPK is a key enzyme that becomes activated under nutrient stress. Annexin V/PI double staining kit was used to detected cell death in flow cytofluorimetric analyses. […] In Kras* cell line, cells died largely of necrosis; in MiaPaca-2 cell line, cells died mostly of apoptosis.

PDAC cells [2] = assay: Seahorse mito-stress test (oxygen consumption rate); type: cell-based; settings: 4-hour treatments, Seahorse XF24e
PDAC cells [3] = assay: Glycolytic ratio, YSI metabolic analyzer; type: cell-based; settings: 30 μM, 24 hours
Description: The glycolytic ratio was obtained using a YSI metabolic analyzer after treatments with phenformin (30 μM) or Re-Phen (30 μM) for 24 hours. Wells with culture media but without cells were used for baseline reading. Data are presented as mean±SD (n=3). *p<0.05; **p<0.01.
Both Re-Phen and phenformin altered the mitochondrial functions and metabolic state of PDAC cells. The fluorescent intensities for both monomeric forms (Ex/Em=490/525 nm) and J-aggregates (Ex/Em=540/590 nm) of JC-10 change upon mitochondrial membrane polarization. Thus, an increase in the ratio of fluorescence intensities measured at 525 nm (monomeric form) over 590 nm (aggregates) represents a decrease in mitochondrial membrane potential.

[4] = system: MiaPaca-2 and Kras* cells; assay: NADH-to-total NAD (NADt) ratio, colorimetric kit; type: cell-based; settings: 100 μM, 3 hours or 12 hours
Description: Data are presented as mean±SD (n=3). *p<0.05; ***p<0.001. Vehicle (DMSO) treated cells were as controls.
Following, PDAC cells were used to measure NADH-to-total NAD (NADt) ratios. NADH-to-total NAD (NADt) ratios were measured using a colorimetric kit (Biovision, Milpitas, CA). Briefly, cells were treated for different time periods as indicated and total NAD (NADt, NAD+NADH) was extracted following manufacturer provided protocol. For each of the extracted samples, half of the sample was heated at 60° C. for 30 minutes to decompose NAD+ while keeping NADH intact. Total NAD+ and NADH level was measured without the heating steps and in the presence of NAD cycling enzyme. The ratio of NADH to NADt were calculated on absorbance measured at 450 nm with a microplate reader (SpectraMax, Molecular Device, San Diego, CA). Cells treated with the same amount of DMSO used to prepare 100 μM phenformin or Re-Phen were used as controls.

| SMILES | log P ([1]; octanol and phosphate-buffered saline (PBS) at pH 7.4) | IC50 (BXPC-3; 72 h) | IC50 (Kras*) | IC50 (MiaPaca-2 PDAC cells) | fold higher cytotoxicity against MiaPaca-2 PDAC cells (MiaPaca-2 PDAC cells; Re-Phen versus phenformin, Table 1) | IC50 (OVCAR4; 72 hours) | IC50 (A2789-cp20) | IC50 (HeyA8; 72 hours) | AMPK activation (AMPK) | mitochondria respiration (OCR) (PDAC cells [2]) | compensatory glycolysis (glycolytic ratio, lactate produced to glucose consumed) (PDAC cells [3]) | ratio of NADH to total NADt [4] | logP ([1]; pH 7.4) | IC50 (BXPC-3; Homo sapiens, BXPC-3, 72 h) | IC50 (Kras*; Mus musculus, Pancreatic cancer cell) | IC50 (MiaPaca-2 PDAC cells; Homo sapiens, MIA PaCa-2) | IC50 (OVCAR4; Homo sapiens, OVCAR-4, 72 hours) | IC50 (HeyA8; HEY A8, 72 hours) |
| --- | --- | --- | --- | --- | --- | --- | --- | --- | --- | --- | --- | --- | --- | --- | --- | --- | --- | --- |
| N=C(N)NC(=N)NCCc1ccccc1.[C-]#[O+].[C-]#[O+].[C-]#[O+].[Re+] [Re-Phen] | 1.07±0.08 | 340 µM | 230 µM | 39 µM | about 35 fold | 390 µM | 260 µM | 82 µM | activated AMPK | suppressed mitochondria respiration | increased compensatory glycolysis | increased the ratio of NADH to total NADt; also recorded: significantly increased NADH/NADt ratio | – | – | – | – | – | – |
| [H]/N=C(/N)N/C(=N/[H])NCCc1ccccc1 [Phenformin, N-phenylethyl biguanide, reference compound] | – | – | – | – | – | – | 100 µM | – | activated AMPK | suppressed mitochondria respiration | increased compensatory glycolysis | increased the ratio of NADH to total NADt; also recorded: significantly increased NADH/NADt ratio | -0.72 ± 0.02 | 1100 µM | 750 µM | 13600 µM | 2430 µM | 22 µM |

— patent publication US20240299595A1, “CANCER THERANOSTIC COMPOSITIONS COMPRISING BIGUANIDE COMPLEXES OF GROUP 7 TRANSITION METALS AND USES THEREOF” (BOARD OF REGENTS, THE UNIVERSITY OF TEXAS SYSTEM, priority 2021, published 2024)
